Data published in US20240218022A1, “ANTI-VISTA MACROCYCLIC PEPTIDES AND COMPOSITIONS” (BRISTOL-MYERS SQUIBB COMPANY, priority 2022, published 2024).
Positions of bridges follow the written chain, without caps; N, C: chain ends. Non-standard residues stand in square brackets, D forms with d. Residues, ends and D or L forms follow the SMILES beside them. *: point of attachment. Ahp(2) = CCCCC[C@H](N)C(=O)O; NHexGly = CCCCCCNCC(=O)O; Nle = CCCC[C@H](N)C(=O)O; Allyl = C=CC*

Biological target: T1, mouse VISTA (mVISTA) (Mus musculus, UniProt Q9D659)
T1 construct: expressed in transfected cells; host or cells: Human embryonic kidney 293T cells
T1 sequence (Q9D659 33-308): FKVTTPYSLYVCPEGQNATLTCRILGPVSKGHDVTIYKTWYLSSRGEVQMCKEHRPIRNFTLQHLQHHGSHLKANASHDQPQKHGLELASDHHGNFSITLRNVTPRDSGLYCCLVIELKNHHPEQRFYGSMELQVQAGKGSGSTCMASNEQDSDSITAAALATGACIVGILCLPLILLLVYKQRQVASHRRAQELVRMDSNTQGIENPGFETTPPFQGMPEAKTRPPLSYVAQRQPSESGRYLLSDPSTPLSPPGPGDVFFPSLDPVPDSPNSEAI
Assay: Cell-Based Binding High-Content Assay For mVISTA (HC CBA mVISTA)
Details: the 20th table, scaffold drawing 23; read-out: HC CBA mVISTA IC50
How it was run: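 mVISTA-293T, 4,000 cells/well; cpd ± washout step; biotin-peptide 2 nM final, 30 min RT; SA-Alexa 647 30 min; formaldehyde/Hoechst fix; HCS imaging; 4PL IC50.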

SMILES	IC50
CCCCCCN1CC(=O)N[C@@H](Cc2ccc(O)cc2)C(=O)N[C@@H](CCCC)C(=O)N[C@@H](CC(N)=O)C(=O)N[C@@H](CCCNC(=N)N)C(=O)N[C@@H](CC(C)C)C(=O)N[C@@H](CCCCC)C(=O)N2CCC[C@H]2C(=O)N[C@@H](C(C)C)C(=O)N[C@@H](CO)C(=O)N[C@H](C(=O)NCC(=O)O)CSCC(=O)N[C@@H](Cc2ccc(O)cc2)C(=O)N[C@@H](Cc2ccc(O)cc2)C(=O)N[C@@H](CC(=O)O)C1=O [compound 1473] ({CH2CO}-YYD[NHexGly]Y[Nle]NRL[Ahp(2)]PVSCG-OH; thioether N-14)	0.0032 µM
CCCCCCN1CC(=O)N[C@@H](Cc2ccc(O)cc2)C(=O)N[C@@H](CCCC)C(=O)N[C@@H](CC(N)=O)C(=O)N[C@@H](CCCNC(=N)N)C(=O)N[C@@H](CC(C)C)C(=O)N[C@@H](CCCCC)C(=O)N2CCC[C@H]2C(=O)N[C@@H](C(C)C)C(=O)N[C@@H](CO)C(=O)N[C@H](C(=O)NCC(N)=O)CSCC(=O)N[C@@H](Cc2ccc(O)cc2)C(=O)N[C@@H](Cc2ccc(O)cc2)C(=O)N[C@@H](CC(=O)O)C1=O [compound 1474] ({CH2CO}-YYD[NHexGly]Y[Nle]NRL[Ahp(2)]PVSCG-NH2; thioether N-14)	0.0404 µM
C=CCOc1ccc(C[C@@H]2NC(=O)CSC[C@@H](C(=O)NCC(N)=O)NC(=O)[C@H](CC(=O)O)NC(=O)[C@H](C(C)C)NC(=O)[C@@H]3CCCN3C(=O)[C@H](CCCCC)NC(=O)[C@H](CC(C)C)NC(=O)[C@H](CCCNC(=N)N)NC(=O)CNC(=O)[C@H](C(C)C)NC(=O)[C@H](Cc3ccc(O)cc3)NC(=O)CN(CCCCCC)C(=O)[C@H](CC(=O)O)NC(=O)[C@H](Cc3ccc(O)cc3)NC2=O)cc1 [compound 1475] ({CH2CO}-Y(Allyl)YD[NHexGly]YVGRL[Ahp(2)]PVDCG-NH2; thioether N-14)	0.0107 µM
CCCCCCN1CC(=O)N[C@@H](Cc2ccc(O)cc2)C(=O)N[C@@H](CCCC)C(=O)N[C@@H](CC(N)=O)C(=O)N[C@@H](CCCNC(=N)N)C(=O)N[C@@H](CC(C)C)C(=O)N[C@@H](CCCCC)C(=O)N2CCC[C@H]2C(=O)N[C@@H](C(C)C)C(=O)N[C@@H](CC(=O)O)C(=O)N[C@H](C(=O)NCC(=O)O)CSCC(=O)N[C@@H](Cc2ccc(OCC)cc2)C(=O)N[C@@H](Cc2c[nH]c3ccccc23)C(=O)N[C@@H](CC(=O)O)C1=O [compound 1476] ({CH2CO}-Y(Et)WD[NHexGly]Y[Nle]NRL[Ahp(2)]PVDCG-OH; thioether N-14)	0.0365 µM
CCCCCCN1CC(=O)N[C@@H](Cc2ccc(O)cc2)C(=O)N[C@@H](C(C)C)C(=O)NCC(=O)N[C@@H](CCCNC(=N)N)C(=O)N[C@@H](CC(C)C)C(=O)N[C@@H](CCCCC)C(=O)N2CCC[C@H]2C(=O)N[C@@H](C(C)C)C(=O)N[C@@H](CC(=O)O)C(=O)N[C@H](C(=O)NCC(N)=O)CSCC(=O)N[C@@H](Cc2ccc(OC)cc2)C(=O)N[C@@H](Cc2ccc(O)cc2)C(=O)N[C@@H](CC(=O)O)C1=O [compound 1477] ({CH2CO}-Y(Me)YD[NHexGly]YVGRL[Ahp(2)]PVDCG-NH2; thioether N-14)	0.0492 µM
CCCCCCN1CC(=O)N[C@@H](Cc2ccc(O)cc2)C(=O)N[C@@H](C(C)C)C(=O)NCC(=O)N[C@@H](CCCNC(=N)N)C(=O)N[C@@H](CC(C)C)C(=O)N[C@@H](CCCCC)C(=O)N2CCC[C@H]2C(=O)N[C@@H](C(C)C)C(=O)N[C@@H](CC(=O)O)C(=O)N[C@H](C(=O)NCC(=O)O)CSCC(=O)N[C@@H](Cc2ccc(OC)cc2)C(=O)N[C@@H](Cc2ccc(O)cc2)C(=O)N[C@@H](CC(=O)O)C1=O [compound 1478] ({CH2CO}-Y(Me)YD[NHexGly]YVGRL[Ahp(2)]PVDCG-OH; thioether N-14)	0.012 µM
